According to US20150209315A1 (Cumberland Pharmaceuticals, priority 2009, published 2015):
Where “and” joins values, the source holds several entries; their conditions need not be identical. Equal values may be shown once.

Key:
[1] = test system: patients; experiment: Safety in all clinical studies conducted to date; assay type: in vivo, human; settings: for postoperative GI bleeding or renal complications: up to 5 days of treatment, abdominal and orthopedic surgical procedures
[2] = test system: patients undergoing orthopedic surgical procedures; experiment: Example 3: additional measurements of efficacy; assay type: in vivo, human; settings: 800 mg
Excerpt: Additional measurements of efficacy were incidence of treatment failure, time to GI motility, time to resumption of ambulation, time to resumption of liquid intake, time to resumption of solid diet, and length of hospital stay.

[3] = test system: post-operative adult patients; experiment: Example 1: treatment failures; assay type: in vivo, human; settings: ITT
Description: Eligible patients were randomized to one of the three treatment groups. All patients were able (but were not required) to receive morphine until approximately 45 minutes before the end of the surgical procedure. After that time, only fentanyl was allowed until the end of the operation. The first dose of ibuprofen was administered at approximately the initiation of skin closure. […] Other than ibuprofen or placebo, only morphine was administered for pain. […] Additional morphine could be administered at the discretion of the treating physician if adequate pain control had still not been achieved. Patients given non-morphine analgesics were classified as treatment failures. Treatment failures were not replaced. A treatment failure was defined as a patient that required narcotic pain medication, other than morphine, or non-narcotic medications including the use of another NSAID through the treatment period. If other narcotics (other than morphine) or NSAIDS were started, ibuprofen/placebo was discontinued. In the ITT population, there was a numerical trend but not a statistically significant difference for fewer treatment failures in the ibuprofen groups compared to the placebo group: […]

[4] = test system: post-operative adult patients; experiment: Example 1: morphine usage in the 24 hours following surgery; assay type: in vivo, human
Description: The reference product, dose and mode of administration was normal saline, 100 ml, intravenous. Saline was chosen as the control group (placebo) for this study, to ensure blinding and allow for analysis of treatment effect. The duration of treatment was up to 5 days post surgery. […] Groups were stratified according to two age groups: <45 and >45 to 70 years of age and two weight groups: <75 kg and >75 kg of weight. The study participants were randomized based on criteria for an efficacy evaluable population (EEP) versus an intent to treat population (ITT). The ITT included all patients who were randomized and received at least a partial dose of ibuprofen. […] Eligible patients were randomized to one of the three treatment groups. All patients were able (but were not required) to receive morphine until approximately 45 minutes before the end of the surgical procedure. After that time, only fentanyl was allowed until the end of the operation. The first dose of ibuprofen was administered at approximately the initiation of skin closure. […] Other than ibuprofen or placebo, only morphine was administered for pain. […] Additional morphine could be administered at the discretion of the treating physician if adequate pain control had still not been achieved. Patients given non-morphine analgesics were classified as treatment failures. Treatment failures were not replaced. […] Secondary efficacy parameters were also evaluated and compared among the treatment groups using appropriate statistical methods described in the statistical analysis section of the protocol. Safety information was compared between the treatment groups using Chi-Square or Cochran-Mantel-Haenszel test. Demographic, background and baseline information among the treatment groups was also described. […] Efficacy analyses were performed on the Intent to Treat (ITT) population and the Efficacy Evaluable Population (EEP). In addition a subset of EEP patients who underwent abdominal hysterectomies (AH) were analyzed separately to evaluate efficacy in a more homogenous population.

[5] = test system: post-operative adult patients; experiment: Example 1: adverse events and safety labs; assay type: in vivo, human
Description: Patients were evaluated and compared for morphine requirements between the active doses and placebo using analysis of variance and covariance procedures at an overall alpha level of 0.05. Secondary efficacy parameters were also evaluated and compared among the treatment groups using appropriate statistical methods described in the statistical analysis section of the protocol. Safety information was compared between the treatment groups using Chi-Square or Cochran-Mantel-Haenszel test. Demographic, background and baseline information among the treatment groups was also described.

[6] = test system: post-operative adult patients; experiment: Example 2: treatment failures; assay type: in vivo, human; settings: 800 mg; ITT
Description: Eligible patients were randomized to one of the two treatment groups. All patients were able (but were not required) to receive morphine until approximately 45 minutes before the end of the surgical procedure. After that time, only fentanyl was allowed until the end of the operation. The first dose of ibuprofen was administered at approximately the initiation of skin closure. […] Other than ibuprofen or placebo, only morphine was administered for pain. […] Additional morphine could be administered at the discretion of the treating physician if adequate pain control had still not been achieved. Patients given non-morphine analgesics were classified as treatment failures. Treatment failures were not replaced. A treatment failure was defined as a patient that required narcotic pain medication, other than morphine, or non-narcotic medications including the use of another NSAID through the treatment period. If other narcotics (other than morphine) or NSAIDS were started, CTM was discontinued.

[7] = test system: patients with fever and severe sepsis; settings: cited from earlier work
[8] = test system: post-operative adult patients; experiment: Example 1: time to GI motility, ambulation, liquid/solid intake, length of hospital stay; assay type: in vivo, human; settings: for Time to GI motility: value + SD
[9] = cited from earlier work
[10] = 400 mg, AH (abdominal hysterectomies)
[11] = 800 mg, AH (abdominal hysterectomies)

In the case of `CC(C)Cc1ccc(C(C)C(=O)O)cc1` (stereo not drawn) [Ibuprofen, 2-(4-isobutylphenyl) propionic acid], the “impact on key metabolic and hematologic parameters” value ([1]; all clinical studies conducted to date) is reported as “no impact”, the “patients with at least one morphine side effect vs placebo” value ([1]; clinical trials, postoperative) is reported as “significantly fewer patients” and the “postoperative GI bleeding or renal complications” value ([1]; listed as IV Ibuprofen) is reported as “No postoperative GI bleeding or renal complications were seen”. For the same compound, the “postoperative GI bleeding or renal complications” value ([1]; listed as intravenous ibuprofen) was “No bleeding or renal toxicity was reported”, the adverse event profile ([1]; vs placebo) was “comparable to placebo” and the “treatment failure, time to GI motility, ambulation, liquid intake, solid diet, length of hospital stay vs placebo” value [2] was “no significant differences between treatment groups”. The “treatment failures, number of patients” value ([3]; 400 mg) was 7, the “treatment failures, percent of patients” value ([3]; 400 mg) was 5% and the “treatment failures, number of patients” value ([3]; 800 mg) was 4. The “treatment failures, percent of patients” value ([3]; 800 mg) was 3%, the “Morphine Usage in the 24 Hours Following Surgery, % Reduction vs. PBO” value (shortened to “Morphine Usage … % Reduction vs. PBO”) [4, 10] was 15.9% and 16% and the “Morphine Usage in the 24 Hours Following Surgery, Median” value (“Morphine Usage … Median” below) [4, 10] was 45.00. For the same compound, the “Morphine Usage … % Reduction vs. PBO” value ([4]; 400 mg, AH (abdominal hysterectomies), listed as IVIb) was 15.89%, the “Morphine Usage … % Reduction vs. PBO” value ([4]; 400 mg, EEP) was 4.4% and the “Morphine Usage … Median” value ([4]; 400 mg, EEP) was 43.00. For the same compound, the “Morphine Usage … % Reduction vs. PBO” value ([4]; 400 mg, EEP, listed as IVIb) was 4.44%, the “Morphine Usage … % Reduction vs. PBO” value ([4]; 400 mg, ITT) was 2.76% and the “Morphine Usage … Median” value ([4]; 400 mg, ITT) was 44.00. For the same compound, the “Morphine Usage … % Reduction vs. PBO” value [4, 11] was 41.1% and 41%, the “Morphine Usage … Median” value [4, 11] was 31.50 and the “Morphine Usage … % Reduction vs. PBO” value ([4]; 800 mg, AH (abdominal hysterectomies), listed as IVIb) was 41.12%. For the same compound, the “Morphine Usage … Median” value ([4]; 800 mg, EEP) was 33.50, the “Morphine Usage … % Reduction vs. PBO” value ([4]; 800 mg, EEP, listed as IV ibuprofen) was 26% and the “Morphine Usage … % Reduction vs. PBO” value ([4]; 800 mg, EEP, listed as IVIb) was 25.56%. For the same compound, the “Morphine Usage … % Reduction vs. PBO” value ([4]; 800 mg, ITT) was 21.6%, the “Morphine Usage … Median” value ([4]; 800 mg, ITT) was 35.50 and the “Morphine Usage … % Reduction vs. PBO” value ([4]; 800 mg, ITT, listed as IVIb) was 21.55%. The “patients experiencing nausea vs placebo” value ([5]; 400 mg) was “significant reduction”, the “bleeding or renal complications” value ([5]; 400 mg and 800 mg) was “no additional bleeding or renal complications” and the “patients experiencing serious adverse events vs placebo” value ([5]; 400 mg and 800 mg) was “no significant differences in the number of patients experiencing serious adverse events between groups”. For the same compound, the Dizziness vs placebo ([5]; 800 mg) was “experienced more often”, the “patients experiencing diarrhea vs morphine only (placebo)” value ([5]; 800 mg) was “significant reduction” and the “patients experiencing nausea vs placebo” value ([5]; 800 mg) was “trending toward significance”. The patient deaths ([5]; 14 day study) was “no patient deaths”, the “patients experiencing gastrointestinal disorders and fever vs morphine only (placebo)” value ([5]; both 400 mg and 800 mg) was “significant reduction” and the “treatment failures, number of patients” value [6] was 7. For the same compound, the “treatment failures, percent of patients” value [6] was 4%, the “safety (renal function, gastrointestinal bleeding, transfusion requirements, other SAEs)” value ([7]; in vivo, iv) was “safe” and the “effect on fever, pulse rate and lactic acidosis” value ([7]; patients with sepsis, intravenous) was “reduced fever and pulse rate and lessened lactic acidosis”. The “Time to GI motility” value ([8]; 400 mg, EEP) was 20.2+1.30 hours, the “Time to GI motility” value ([8]; 400 mg, ITT) was 20.1+1.28 hours and the “Time to GI motility” value ([8]; 800 mg, EEP) was 21.2+1.63 hours. For the same compound, the “Time to GI motility” value ([8]; 800 mg, ITT) was 21.6+1.50 hours, the “time to liquid intake vs placebo” value ([8]; ibuprofen treated group, ITT) was “not found to be statistically significant” and the “time to solid intake vs placebo” value ([8]; ibuprofen treated group, ITT) was “not found to be statistically significant”. The “Time to ambulation vs placebo” value ([8]; ibuprofen treated groups, ITT) was “found not to be statistically significant faster”, the “Length of hospital stay vs placebo” value ([8]; treated groups, ITT) was “not found to be statistically significant” and the solubility in water [9] was “very poorly soluble in water”.
